Measured values published in patent publication US20220194938A1, “NOVEL COMPOUNDS AND PHARMACEUTICAL COMPOSITIONS THEREOF FOR THE TREATMENT OF INFLAMMATORY DISORDERS” (GALAPAGOS NV, priority 2019, published 2022).
Converted amounts (≈) assume the structure as drawn. “And” between values parts separate entries of the source, which are not always exact repeats. Identical values can stand only once. Like-named read-outs stand apart in the source and are kept apart here.

Tests used:
Thermodynamic solubility = format: physicochemical; conditions: 37° C.; for solubility thermodynamic at 24 h: thermodynamic from solid
Excerpt: 4.2. Thermodynamic Solubility
Poor solubility, in particular poor thermodynamic solubility can limit the absorption of compounds from the gastrointestinal tract which in turn may reduce oral bioavailability.
Thermodynamic solubility investigates the solubility of a compound as a saturated solution in equilibrium, by opposition to kinetic solubility, which measures the solubility of a metastable solution where supersaturation may occur and provide over estimation of the actual solubility of the compound. (Klein 2010)
4.2.1. Thermodynamic Solubility—Protocol 1
(§1) In a 8 mL glass vial, 1-2 mg of dry matter of compound are added and stirred with the suitable buffers (Fed State Simulated Intestine Fluid, FeSSIF, or Fasted State Simulated Intestine Fluid, FaSSIF, or Fasted State Simulated Gastric Fluid, FaSSGF, or phosphate buffer pH 7.4) for 24 h at r.t. (for the buffer pH 7.4) or 37° C. (for the GI fluids). The concentration of the mixture is 1 mg/mL.
A volume of 500 μL are sampled, centrifuged for 10 min at 10 000 rpm and filtered. The samples are diluted in duplicates in DMSO (F100 and F10). Then, a final dilution (F100) in 80/20 H2O/MeCN containing the internal standard (warfarin) is used for LCMS-MS analysis.
A standard curve is made starting from a 200,000 ng/mL stock in DMSO, freshly prepared from dry matter. Then, successive concentrations at […], 1,000, 200 and 75 ng/mL in DMSO are prepared by using the Tecan robot.
Two quality control samples are made: one of 10,000 ng/mL and one of 500 ng/mL in DMSO, also starting from the DMSO working stock solution at 200,000 ng/mL.
The standard curve and quality controls are diluted a F100 in 80/20 H2O/MeCN (with internal standard) and analyzed on LC/MS-MS (API4000 or API5500).
(§2) The samples are analyzed on LC-MS with a flow rate of 0.6 mL/min. The mobile phase A is 0.1% formic acid in water and the mobile phase B is 0.1% formic acid in MeCN. The sample is run under positive or negative ion spray on Pursuit C18-5 μm (2.0×20 mm) column, from Agilent.
The peak areas of the standard curve are plotted in a graph and a linear or polynomial of the second order equation is used to calculate the unknown concentrations of the test compound.
4.2.2. Thermodynamic Solubility—Protocol 2
as §1, with “In an” for “In a”, “compound were” for “compound are”, “mixture was” for “mixture is”
A volume of 1000 μL were sampled, centrifuged for 10 min at 10 000 rpm and 500 μL of the supernatant were filtered on captiva plate. The samples were diluted in duplicates in DMSO (F100 and F10). Then, a final dilution (F100) in 80/20 H2O/MeCN containing the internal standard (warfarin) was used for LCMS-MS analysis.
A standard curve was made starting from a 40,000 ng/mL stock in DMSO, freshly prepared from dry matter. Then, successive concentrations at 15,000, 11,000, 6,000, 2,500, 1,000, 375, 150 and 75 ng/mL in DMSO were prepared.
Three quality control samples were made: one of 10,000, 1,500 and 200 ng/mL in DMSO, also starting from the DMSO working stock solution at 40,000 ng/mL.
The standard curve and quality controls were diluted a F100 in 80/20 H2O/MeCN (with internal standard) and analyzed on LC/MS-MS (API4000 or API5500).
as §2, with “were” for “are”, “was” for “is”, “90% acetonitrile and 10% of water.” for “MeCN.”, “Agilent. […]” for “Agilent.”

[1] = tested on: pooled cryopreserved hepatocytes; experiment: Metabolic stability in hepatocytes (mouse); format: in vitro ADME; conditions: 1 μM test compound
In short: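 Test compound at 1 μM (0.03% DMSO) incubated with 0.5 million viable pooled cryopreserved hepatocytes/mL at 37° C with shaking; sampled 0–180 min. Parent loss measured by LC-MS/MS versus time-zero, and intrinsic clearance derived from percentage-remaining plots, scaled to L/h/kg and corrected for hepatocyte binding.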

[2] = Fasted State Simulated Intestine Fluid (FaSSIF), fassif, Fasted State Simulated Intestine Fluid, read-out: Tsol FaSSIF
[3] = Fasted State Simulated Gastric Fluid (FaSSGF), fassgf or other biorelevant, Fasted State Simulated Gastric Fluid, read-out: Tsol FaSSGF
[4] = Fed State Simulated Intestine Fluid (FeSSIF), fessif, Fed State Simulated Intestine Fluid, read-out: Tsol FeSSIF

solubility thermodynamic at 24 h (Thermodynamic solubility; [2]) | Mouse (Perc. remaining at 90 min) [1] | solubility thermodynamic at 24 h (Thermodynamic solubility; [3]) | solubility thermodynamic at 24 h (Thermodynamic solubility; [4]) | Tsol FaSSGF (Thermodynamic solubility; Fasted State Simulated Gastric Fluid, 24 h) | Tsol FaSSIF (Thermodynamic solubility; Fasted State Simulated Intestine Fluid, 24 h) | Tsol FeSSIF (Thermodynamic solubility; Fed State Simulated Intestine Fluid, 24 h) | Structure (SMILES)
< 30 µg/mL | 25.85% |  |  |  |  |  | COCCc1cn2cc(NC(=O)c3cccc(C(F)(F)F)n3)c(OC)cc2n1 [Compound 35, N-[7-methoxy-2-(2-methoxyethyl)imidazo[1,2-a]pyridin-6-yl]-6-(trifluoromethyl)pyridine-2-carboxamide]
459 µg/mL (≈ 1150 µM) | 89.65% | > 1000 µg/mL |  |  |  |  | CCn1cccc(C(=O)Nc2cn3cc(CCC(C)(C)O)nc3cc2OC)c1=O [Compound 23, 1-ethyl-N-[2-(3-hydroxy-3-methyl-butyl)-7-methoxy-imidazo[1,2-a]pyridin-6-yl]-2-oxo-pyridine-3-carboxamide]
798 µg/mL (≈ 1940 µM) | 100% | > 1000 µg/mL | > 1000 µg/mL |  |  |  | COc1cc2nc(CCC(C)(C)O)cn2cc1NC(=O)c1cccn(C2CC2)c1=O [Compound 5, 1-cyclopropyl-N-[2-(3-hydroxy-3-methyl-butyl)-7-methoxy-imidazo[1,2-a]pyridin-6-yl]-2-oxo-pyridine-3-carboxamide]
 | 103.4% |  |  | 673 µg/mL and 969 µg/mL | 9.08 µg/mL and 9.24 µg/mL | 35.4 µg/mL and 25.8 µg/mL | CNC(=O)c1cc2nc(CCC(C)(C)O)cn2cc1NC(=O)c1cccc(C(F)(F)F)n1 [Compound 2, 2-(3-hydroxy-3-methyl-butyl)-N-methyl-6-[[6-(trifluoromethyl)pyridine-2-carbonyl]amino]imidazo[1,2-a]pyridine-7-carboxamide]
15.2 µg/mL (≈ 37.6 µM) | 26.4% |  |  |  |  |  | COc1cc2nc(CCC(C)(C)O)cn2cc1NC(=O)c1cccc(C(F)F)n1 [Compound 7, 6-(difluoromethyl)-N-[2-(3-hydroxy-3-methyl-butyl)-7-methoxy-imidazo[1,2-a]pyridin-6-yl]pyridine-2-carboxamide]
70.5 µg/mL (≈ 159 µM) | 103.5% | > 1000 µg/mL |  |  |  |  | CCOc1c(NC(=O)c2cccn(C3CC3)c2=O)cn2cc(CCC(C)(C)O)nc2c1F [Compound 37, 1-cyclopropyl-N-[7-ethoxy-8-fluoro-2-(3-hydroxy-3-methyl-butyl)imidazo[1,2-a]pyridin-6-yl]-2-oxo-pyridine-3-carboxamide]
181 µg/mL (≈ 422 µM) | 91.45% | > 1000 µg/mL | 612 µg/mL (≈ 1430 µM) |  |  |  | COc1c(NC(=O)c2cccn(C3CC3)c2=O)cn2cc(CCC(C)(C)O)nc2c1F [Compound 42, 1-cyclopropyl-N-[8-fluoro-2-(3-hydroxy-3-methyl-butyl)-7-methoxy-imidazo[1,2-a]pyridin-6-yl]-2-oxo-pyridine-3-carboxamide]
